This is an account of results in US20070123546A1, “2-amino-7,8-dihydro-6H-pyrido[4,3-d]pyrimidin-5-ones” (Chiron Corporation, priority 2005, published 2007).

pIC50: −log10 of the molar value.

As usually defined, the pIC50 is the IC50 on a negative log10 scale, so that one unit is a factor of ten.

One assay addresses His-tagged N-terminal ATP binding domain (amino acid residues 9-236) of HSP90α (Homo sapiens, UniProt P07900). The experiment in a line: HSP90 inhibitor binding potency: TRF competition binding assay. Conditions: Table 1; competition with biotinylated radicicol. The gist of the method: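 Competition against biotinylated radicicol for binding to the His-tagged 9-236 ATP domain of HSP90α: 2 h, room temperature, HEPES/MgCl2/KCl/BSA buffer. Streptavidin capture, then europium-labeled anti-His antibody and enhancement solution; europium counts give IC50.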
The molecule `Cc1nc(N)nc2c1C(=O)N(Cc1ccccc1)[C@H](c1ccc(F)cc1-c1cccnc1F)C2` [Compound 2, (S)-2-Amino-6-benzyl-7-[4-fluoro-2-(2-fluoro-pyridin-3-yl)-phenyl]-4-methyl-7,8-dihydro-6H-pyrido[4,3-d]pyrimidin-5-one] gave a pIC50 of less than 5.00.

With `COc1cccc(-c2cc(F)ccc2[C@H]2Cc3nc(N)nc(C)c3C(=O)N2CCCN)n1` [Compound 27, (R)-2-Amino-6-(3-amino-propyl)-7-[4-fluoro-2-(6-methoxy-pyridin-2-yl)-phenyl]-4-methyl-7,8-dihydro-6H-pyrido[4,3-d]pyrimidin-5-one], the pIC50 was more than 5.00.

In the case of `COc1nc(-c2cc(F)ccc2[C@H]2Cc3nc(N)nc(C)c3C(=O)N2)ncc1C` [Compound 40, (R)-2-Amino-7-[4-fluoro-2-(4-methoxy-5-methyl-pyrimidin-2-yl)-phenyl]-4-methyl-7,8-dihydro-6H-pyrido[4,3-d]pyrimidin-5-one], the pIC50 was more than 5.00.

`COc1ncc(-c2cc(F)ccc2C2Cc3nc(N)nc(C)c3C(=O)N2)c(OC)n1` (centres unmarked) [Compound 35, 2-Amino-7-[2-(2,4-dimethoxy-pyrimidin-5-yl)-4-fluoro-phenyl]-4-methyl-7,8-dihydro-6H-pyrido[4,3-d]pyrimidin-5-one]: the pIC50 was less than 5.00.

For the molecule `COc1ncccc1-c1cc(F)ccc1C1Cc2nc(N)nc(C)c2C(=O)N1CC(C)(C)N1CCOCC1` (centres unmarked) [Compound 38, 2-Amino-7-[4-fluoro-2-(2-methoxy-pyridin-3-yl)-phenyl]-4-methyl-6-(2-methyl-2-morpholin-4-yl-propyl)-7,8-dihydro-6H-pyrido[4,3-d]pyrimidin-5-one], the pIC50 was less than 5.00.

Still in this assay, the particulars now being: Table 2; competition with biotinylated radicicol.
Consider `CCOc1cncc(-c2cc(F)ccc2[C@H]2Cc3nc(N)nc(CC)c3C(=O)N2)n1` [Compound 86, (R)-2-Amino-7-[2-(6-ethoxy-pyrazin-2-yl)-4-fluoro-phenyl]-4-ethyl-7,8-dihydro-6H-pyrido[4,3-d]pyrimidin-5-one], for which the pIC50 is more than 5.00.

As for `COc1cncc(-c2ccccc2[C@H]2Cc3nc(N)nc(C)c3C(=O)N2)n1` [Compound 69, (R)-2-Amino-7-[2-(6-methoxy-pyrazin-2-yl)-phenyl]-4-methyl-7,8-dihydro-6H-pyrido[4,3-d]pyrimidin-5-one], the pIC50 was more than 5.00.

Molecule `COc1cncc(-c2ccccc2[C@H]2Cc3nc(N)ncc3C(=O)N2)n1` [Compound 42, (R)-2-Amino-7-[2-(6-methoxy-pyrazin-2-yl)-phenyl]-7,8-dihydro-6H-pyrido[4,3-d]pyrimidin-5-one] gave a negative logarithm of the IC50 (pIC50) of more than 5.00.

For the molecule `Cc1nc(N)nc2c1C(=O)N[C@@H](c1ccc(F)cc1C#N)C2` [Compound 50, 2-((R)-2-Amino-4-methyl-5-oxo-5,6,7,8-tetrahydro-pyrido[4,3-d]pyrimidin-7-yl)-5-fluoro-benzonitrile], the pIC50 is less than 5.00.

`COc1nc(-c2cc(F)ccc2[C@H]2Cc3nc(N)nc(C)c3C(=O)N2)ccc1N` [Compound 44, (R)-2-Amino-7-[2-(5-amino-6-methoxy-pyridin-2-yl)-4-fluoro-phenyl]-4-methyl-7,8-dihydro-6H-pyrido[4,3-d]pyrimidin-5-one] had a pIC50 of more than 5.00.

Molecule `CCc1nc(N)nc2c1C(=O)N[C@@H](c1ccccc1-c1cnc(N)c(OC)n1)C2` [Compound 79, (R)-2-Amino-7-[2-(5-amino-6-methoxy-pyrazin-2-yl)-phenyl]-4-ethyl-7,8-dihydro-6H-pyrido[4,3-d]pyrimidin-5-one] showed a negative logarithm of the IC50 (pIC50) of more than 5.00.

`COc1ccccc1-c1cc(F)ccc1[C@H]1Cc2nc(N)ncc2C(=O)N1` [Compound 54, (R)-2-Amino-7-(5-fluoro-2′-methoxy-biphenyl-2-yl)-7,8-dihydro-6H-pyrido[4,3-d]pyrimidin-5-one] had a pIC50 of more than 5.00.

`CCOc1ccnc(-c2cc(F)ccc2[C@H]2Cc3nc(N)nc(C)c3C(=O)N2)n1` [Compound 47, (R)-2-Amino-7-[2-(4-ethoxy-pyrimidin-2-yl)-4-fluoro-phenyl]-4-methyl-7,8-dihydro-6H-pyrido[4,3-d]pyrimidin-5-one] gave a pIC50 of more than 5.00.

The molecule `COc1nc(-c2cc(F)ccc2[C@H]2Cc3nc(N)nc(C)c3C(=O)N2)ncc1Cl` [Compound 52, (R)-2-Amino-7-[2-(5-chloro-4-methoxy-pyrimidin-2-yl)-4-fluoro-phenyl]-4-methyl-7,8-dihydro-6H-pyrido[4,3-d]pyrimidm-5-one] showed a pIC50 of more than 5.00.

`COc1cccc(-c2cc(F)ccc2[C@H]2Cc3nc(N)nc(C)c3C(=O)N2)c1OC` [Compound 73, (R)-2-Amino-7-(5-fluoro-2,3′-dimethoxy-biphenyl-2-yl)-4-methyl-7,8-dihydro-6H-pyrido[4,3-d]pyrimidin-5-one] gave a negative logarithm of the IC50 (pIC50) of more than 5.00.

For the molecule `CCOc1nc(-c2cc(F)ccc2[C@H]2Cc3nc(N)ncc3C(=O)N2)cnc1N` [Compound 83, (R)-2-Amino-7-[2-(5-amino-6-ethoxy-pyrazin-2-yl)-4-fluoro-phenyl]-7,8-dihydro-6H-pyrido[4,3-d]pyrimidin-5-one], the pIC50 was more than 5.00.

Regarding `COc1ncc(-c2ccccc2[C@H]2Cc3nc(N)nc(C)c3C(=O)N2)nc1OC` [Compound 68], the pIC50 is more than 5.00.

Staying with this assay, now noted: Table 3; competition with biotinylated radicicol.
`COc1cncc(-c2cc(F)ccc2[C@H]2Cc3nc(N)nc(C)c3C(=O)N2Cc2cccc(C(F)(F)F)c2)n1` [Compound 127, (R)-2-Amino-7-[4-fluoro-2-(6-methoxy-pyrazin-2-yl)-phenyl]-4-methyl-6-(3-trifluoromethyl-benzyl)-7,8-dihydro-6H-pyrido[4,3-d]pyrimidin-5-one] had a pIC50 of more than 5.00.

In turn, `Cc1nc(N)nc2c1C(=O)N(CCCNC(=O)OC(C)(C)C)[C@@H](c1ccc(F)cc1-c1cccnc1)C2` [Compound 167, {3-[(R)-2-Amino-7-(4-fluoro-2-pyridin-3-yl-phenyl)-4-methyl-5-oxo-7,8-dihydro-5H-pyrido[4,3-d]pyrimidin-6-yl]-propyl}-carbamic acid tert-butyl ester] had a pIC50 of more than 5.00.

Turning to `COc1cncc(-c2cc(F)ccc2[C@H]2Cc3nc(N)nc(C)c3C(=O)N2CCO)n1` [Compound 113, (R)-2-Amino-7-[4-fluoro-2-(6-methoxy-pyrazin-2-yl)-phenyl]-6-(2-hydroxy-ethyl)-4-methyl-7,8-dihydro-6H-pyrido[4,3-d]pyrimidin-5-one], the pIC50 was more than 5.00.

As for `COc1ncc(-c2cc(F)ccc2[C@H]2Cc3nc(N)nc(C)c3C(=O)N2Cc2ccccc2)c(OC)n1` [Compound 141, (R)-2-Amino-6-benzyl-7-[2-(2,4-dimethoxy-pyrimidin-5-yl)-4-fluoro-phenyl]-4-methyl-7,8-dihydro-6H-pyrido[4,3-d]pyrimidin-5-one], the pIC50 is less than 5.00.

Regarding `CCN1C(=O)c2c(C)nc(N)nc2C[C@@H]1c1ccc(F)cc1-c1cnc(OC)nc1OC` [Compound 111, (R)-2-Amino-7-[2-(2,4-dimethoxy-pyrimidin-5-yl)-4-fluoro-phenyl]-6-ethyl-4-methyl-7,8-dihydro-6H-pyrido[4,3-d]pyrimidin-5-one], the pIC50 was less than 5.00.

`COc1ncc(-c2cc(F)ccc2[C@H]2Cc3nc(N)nc(C)c3C(=O)N2CCC(C)C)nc1OC` [Compound 147, (R)-2-Amino-7-[-(5,6-dimethoxy-pyrazin-2-yl)-4-fluoro-phenyl]-4-methyl-6-(3-methyl-butyl)-7,8-dihydro-6H-pyrido[4,3-d]pyrimidin-5-one] had a pIC50 of more than 5.00.

In the case of `COc1cccc(-c2cc(F)ccc2[C@H]2Cc3nc(N)nc(C)c3C(=O)N2CC2CCOCC2)n1` [Compound 132, (R)-2-Amino-7-[4-fluoro-2-(6-methoxy-pyridin-2-yl)-phenyl]-4-methyl-6-(tetrahydro-pyran-4-ylmethyl)-7,8-dihydro-6H-pyrido[4,3-d]pyrimidin-5-one], the pIC50 is more than 5.00.

The molecule `CCN1C(=O)c2c(C)nc(N)nc2C[C@@H]1c1ccc(F)cc1-c1cccc(OC)n1` [Compound 106, (R)-2-Amino-6-ethyl-7-[4-fluoro-2-(6-methoxy-pyridin-2-yl)-phenyl]-4-methyl-7,8-dihydro-6H-pyrido[4,3-d]pyrimidin-5-one] gave a negative logarithm of the IC50 (pIC50) of more than 5.00.

Staying with this assay, now noted: Table 4; competition with biotinylated radicicol.
For `CCc1nc(N)nc2c1C(=O)N[C@@H](c1ccc(F)cc1-c1csc(OC)n1)C2` [Compound 215, (R)-2-Amino-4-ethyl-7-[4-fluoro-2-(2-methoxy-thiazol-4-yl)-phenyl]-7,8-dihydro-6H-pyrido[4,3-d]pyrimidin-5-one], the pIC50 was more than 5.00.

Take `COc1nc(-c2cc(F)ccc2[C@H]2Cc3nc(N)nc(C)c3C(=O)N2)ccc1N` [Compound 190, (R)-2-Amino-7-[2-(5-amino-6-methoxy-pyridin-2-yl)-4-fluoro-phenyl]-4-methyl-7,8-dihydro-6H-pyrido[4,3-d]pyrimidin-5-o[…]ne]: the pIC50 was more than 5.00.

Take `Cc1ccccc1-c1cc(F)ccc1[C@H]1Cc2nc(N)ncc2C(=O)N1` [Compound 181, (R)-2-Amino-7-(5-fluoro-2′-methyl-biphenyl-2-yl)-7,8-dihydro-6H-pyrido[4,3-d]pyrimidin-5-one]: the pIC50 is more than 5.00.

On to `COc1nc(-c2cc(F)ccc2[C@H]2Cc3nc(N)ncc3C(=O)N2)ccc1N` [Compound 208, (R)-2-Amino-7-[2-(5-amino-6-methoxy-pyridin-2-yl)-4-fluoro-phenyl]-7,8-dihydro-6H-pyrido[4,3-d]pyrimidin-5-one], for which the pIC50 was more than 5.00.

Molecule `Cc1nc(N)nc2c1C(=O)N[C@@H](c1ccc(F)cc1-c1n[nH]c(=O)o1)C2` [Compound 222, (R)-2-Amino-7-[4-fluoro-2-(5-oxo-4,5-dihydro-[1,3,4]oxadiazol-2-yl)-phenyl]-4-methyl-7,8-dihydro-6H-pyrido[4,3-d]pyrimi[…]din-5-one] had a pIC50 not above 5.00.

The molecule `COc1cc(F)ccc1-c1cc(F)ccc1[C@H]1Cc2nc(N)ncc2C(=O)N1` [Compound 178] gave a pIC50 of more than 5.00.

With `COc1ncc(-c2ccccc2[C@H]2Cc3nc(N)nc(C)c3C(=O)N2)nc1OC` [Compound 189, (R)-2-Amino-7-[2-(5,6-dimethoxy-pyrazin-2-yl)-phenyl]-4-methyl-7,8-dihydro-6H-pyrido[4,3-d]pyrimidin-5-one], the negative-log IC50 (pIC50) was more than 5.00.
